Experimental data reported in patent US11851431B2, “Tricyclic Janus kinase 1 inhibitors, and compositions and methods thereof” (LYNK PHARMACEUTICALS CO. LTD., priority 2018, dated 2023).
Like-named read-outs stand apart in the source and are kept apart here.

Key:
[1] = Human liver microsome stability study; assay type: in vitro ADME; conditions: liver microsomes, pH 7.4, 0.5 mg/mL microsomal protein, 1 μM test article; for microsomal CLint at 1 μM: read-out: HLM Clint; for half-life at 1 μM: read-out: HLM T½
Description: Commercially available human liver microsome (vendor: Corning) were used for study the Phase I stability of test articles.
Microsomes were pre-incubated with test compound or control compounds for 10 min at 37° C. in 100 mM potassium phosphate buffer, pH 7.4, 3.3 mM MgCl2. The reaction was initiated by addition of 80 μL of the NADPH regenerating system to 320 μL of each incubation mixture per time point. The final incubation condition was composed of 0.5 mg/mL microsomal protein, 1 μM test article/positive control, 1.3 mM NADP, 3.3 mM glucose-6-phosphate, and 0.6 U/mL glucose-6-phosphate dehydrogenase. The 0-minute samples were prepared by addition of an 80 μL aliquot of each incubation mixture to 400 μL quench reagent to precipitate proteins. And then a 20 μL aliquot of the NADPH regenerating system was added. At 10, 30, and 90 minutes, the reaction will be stopped by the addition of cold acetonitrile solution containing tolbutamide and propanolol served as internal standard. The samples taken at all time points were centrifuged at 4000×g for 15 minutes. 80 μL of supernatant are taken into 96-well assay plates pre-added with 160 μL ultrapure water, and then analyzed by LC/MS/MS (Shimadzu LC30AD & API4000/API5000)).
Concentrations of test articles, control compounds in the samples were determined by using LC/MS/MS) method. Plotting of the chromatograms and peak area integrations are carried out by Analyst (AB Sciex).
In the determination of the in vitro elimination constant, ke, of the control compounds, the analyte/internal standard peak area ratios will be converted to percentage remaining (% Remaining) with the following equation:
The CLint of microsomes was calculated using the formula: CLint (mic)=0.693/T1/2/mg microsome protein per mL.

[2] = tested on: BaF3-TEL-JAK2; assay: Anti-proliferative assay, BaF3-TEL-JAK2 cells; assay type: cell-based; conditions: 72 h, Cell-Titer Glo
Description: (§1) Dimerization domain of Tel protein fused with JAK kinase domain was permanently transduced into BaF3 cells, whose proliferation is dependent on JAK activity in the absence of IL-3 induction. These engineered BaF3-Tel-JAK cells were used to monitor JAK inhibitory activities of the compounds in the cellular.
(§2) BaF3-Tel-JAK cells were cultured in RPMI-1640 (Corning) containing 10% fetal bovine serum. Cells were seeded at 2000/well of white flat bottom 96-well plates. The well containing medium only was used as background control. After 24h growth, cells were treated with compounds. The test compounds were dissolved in DMSO to a stock concentration of 10 mM. 3-fold serially diluted compounds for 9 concentrations with top concentration of 10 μM was added into the each well. The final DMSO concentration was 0.2%. The cells continued to grow at 37° C. in 5% CO2 for 72 h after compound treatment. The viability was measured by cellular ATP determination using the Cell-Titer Glo luciferase reagent (Promega). The Luminescence value was recorded by a multi-label reader Envision (PerkinElmer). Values were transformed to percent inhibition using the following formula. % Inhibition=(Readoutmax−Readoutsample)/(Readoutmax−Readoutmin)*100
(§3) The well without compound but with equivalent DMSO was defined as Readout max
(§4) The well with only medium and equivalent DMSO was defined as Readout min
(§5) The dose-response (percent inhibition) curve was plotted and GI50 values (the concentration that causes 50% growth inhibition) were determined by GraphPad software.

[3] = molecular target: T1, JAK2 (Homo sapiens, UniProt O60674); assay: JAK biochemical microfluidic assay (Caliper EZ Reader), JAK2; conditions: 1 mM ATP; head prints (0.25 nM)
T1 construct: purchased Carna Biosciences
Description: (§6) JAK activity was determined in the reaction buffer 50 mM HEPES, 0.01% Brij35, 10 mM MgCl2, 2 mM DTT by a microfluidic assay. The phosphorylation of a FAM labeled peptide substrate was monitored in the Caliper EZ Reader II (Perkin Elmer). The assay condition for each batch of enzyme (Carna Biosciences) was optimized to obtain 10% conversion rate of peptide substrate.
(§7) The test compounds were dissolved in DMSO to a stock concentration of 10 mM. Three-fold serially diluted compounds with top concentration of 5 μM were pre-incubated with JAK1, JAK2 or TYK2 for 10 min at ambient temperature. The final DMSO concentration of assay mixture was 1%. […] The reaction was stopped by adding 50 mM EDTA.
(§8) The percent inhibition was calculated by the following formula. % Inhibition=(Conversionmax−Conversionsample)/(Conversionmax−Conversionmin)*100 Conversionmax means the conversion rate in the positive well without addition of compound • […] means the conversion rate in the well without addition of enzyme • Conversionsample means the conversion rate of test compounds
(§9) The dose-response (percent inhibition) curve was plotted and IC50 values were determined by GraphPad software.

[4] = tested on: BaF3-TEL-JAK1; assay: Anti-proliferative assay, BaF3-TEL-JAK1 cells; assay type: cell-based; conditions: 72 h, Cell-Titer Glo
Description: as §1, §2, §3, §4, §5

[5] = molecular target: T2, JAK1 (Homo sapiens, UniProt P23458); assay: JAK biochemical microfluidic assay (Caliper EZ Reader), JAK1; conditions: 1 mM ATP; head prints (5 nM)
T2 construct: purchased Carna Biosciences
Description: as §6, §7, §8, §9

[6] = molecular target: T3, TYK2 (Homo sapiens, UniProt P29597); assay: JAK biochemical microfluidic assay (Caliper EZ Reader), TYK2; conditions: 1 mM ATP; head prints (2.5 nM)
T3 construct: purchased Carna Biosciences
Description: as §6, §7, §8, §9

[7] = Rat pharmacokinetic study; assay type: in vivo, Sprague-Dawley rats; conditions: for half-life: read-out: t½ (converted)
Description: Pharmacokinetic profile of test articles were evaluated in fasted Sprague-Dawley rats. Typically, Rats were dosed with 1 mg/kg and 2 mg/kg by intravenous injection and oral gavage, respectively. After dosing, blood samples were collected at each time point. For IV injection group, time points were set at 5, 15, 30 min, and then 1, 2, 4, 8 and 24 hours after dosing. For oral gavage group, time points were set at 15, 30 min, and then 1, 2, 4, 8, and 24 hours. Blood was collected into appropriately labeled tubes containing K2EDTA as the anticoagulant. Plasma was obtained within 1 hours of blood collection by centrifugation at 8000×g and 4° C. for 6 minutes, and then stored at −20° C. until analyzed by LC/MS/MS for quantification.
PK parameter values, including, but not necessarily limited to, the maximum plasma concentrations (Cmax), the time to reach the maximum concentrations (Tmax), and the area under the plasma concentration vs. time curve (AUC) from time zero to 24-hour (AUC0-24h) were determined using WinNonlin program.

[8] = Sprague-Dawley, plasma, 1 mg/kg, Rat iv @1 mpk, 0.2 mg/mL in 5% DMSO + 15% Solutol HS 15 + 80% Saline
[9] = Sprague-Dawley, plasma, 2 mg/kg, Rat po @2 mpk, 0.2 mg/mL in 5% DMSO + 15% Solutol HS 15 + 80% Saline

T2 sequence (P23458 whole entry): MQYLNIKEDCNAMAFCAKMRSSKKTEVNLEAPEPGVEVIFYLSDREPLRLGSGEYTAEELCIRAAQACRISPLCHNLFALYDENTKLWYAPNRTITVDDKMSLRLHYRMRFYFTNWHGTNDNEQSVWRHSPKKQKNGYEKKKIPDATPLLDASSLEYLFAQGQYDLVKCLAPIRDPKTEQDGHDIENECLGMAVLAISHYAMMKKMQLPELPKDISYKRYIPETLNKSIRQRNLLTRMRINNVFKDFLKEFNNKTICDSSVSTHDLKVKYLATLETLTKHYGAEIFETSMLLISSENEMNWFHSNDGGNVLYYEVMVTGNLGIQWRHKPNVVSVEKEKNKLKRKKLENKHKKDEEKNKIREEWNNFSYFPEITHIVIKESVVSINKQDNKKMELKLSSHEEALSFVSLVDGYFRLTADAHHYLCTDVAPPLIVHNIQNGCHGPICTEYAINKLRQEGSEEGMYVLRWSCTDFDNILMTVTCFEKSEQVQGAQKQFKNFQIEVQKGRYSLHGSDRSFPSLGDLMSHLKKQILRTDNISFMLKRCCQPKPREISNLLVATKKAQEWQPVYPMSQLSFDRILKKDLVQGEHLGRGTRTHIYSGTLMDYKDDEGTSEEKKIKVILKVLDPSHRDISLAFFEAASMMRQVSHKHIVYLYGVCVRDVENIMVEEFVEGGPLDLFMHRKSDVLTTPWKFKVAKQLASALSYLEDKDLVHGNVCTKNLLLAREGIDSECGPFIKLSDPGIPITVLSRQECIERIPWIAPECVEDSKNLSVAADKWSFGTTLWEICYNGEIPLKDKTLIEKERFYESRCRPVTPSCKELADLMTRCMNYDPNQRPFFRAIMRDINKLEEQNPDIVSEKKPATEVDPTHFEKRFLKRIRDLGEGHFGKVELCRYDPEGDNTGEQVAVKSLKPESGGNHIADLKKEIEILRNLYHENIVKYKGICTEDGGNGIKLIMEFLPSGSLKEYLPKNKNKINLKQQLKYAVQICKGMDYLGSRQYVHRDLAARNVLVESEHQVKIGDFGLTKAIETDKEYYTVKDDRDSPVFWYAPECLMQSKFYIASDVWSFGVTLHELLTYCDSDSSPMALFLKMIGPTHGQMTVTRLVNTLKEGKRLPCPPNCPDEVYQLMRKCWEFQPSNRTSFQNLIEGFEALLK
T3 sequence (P29597 whole entry): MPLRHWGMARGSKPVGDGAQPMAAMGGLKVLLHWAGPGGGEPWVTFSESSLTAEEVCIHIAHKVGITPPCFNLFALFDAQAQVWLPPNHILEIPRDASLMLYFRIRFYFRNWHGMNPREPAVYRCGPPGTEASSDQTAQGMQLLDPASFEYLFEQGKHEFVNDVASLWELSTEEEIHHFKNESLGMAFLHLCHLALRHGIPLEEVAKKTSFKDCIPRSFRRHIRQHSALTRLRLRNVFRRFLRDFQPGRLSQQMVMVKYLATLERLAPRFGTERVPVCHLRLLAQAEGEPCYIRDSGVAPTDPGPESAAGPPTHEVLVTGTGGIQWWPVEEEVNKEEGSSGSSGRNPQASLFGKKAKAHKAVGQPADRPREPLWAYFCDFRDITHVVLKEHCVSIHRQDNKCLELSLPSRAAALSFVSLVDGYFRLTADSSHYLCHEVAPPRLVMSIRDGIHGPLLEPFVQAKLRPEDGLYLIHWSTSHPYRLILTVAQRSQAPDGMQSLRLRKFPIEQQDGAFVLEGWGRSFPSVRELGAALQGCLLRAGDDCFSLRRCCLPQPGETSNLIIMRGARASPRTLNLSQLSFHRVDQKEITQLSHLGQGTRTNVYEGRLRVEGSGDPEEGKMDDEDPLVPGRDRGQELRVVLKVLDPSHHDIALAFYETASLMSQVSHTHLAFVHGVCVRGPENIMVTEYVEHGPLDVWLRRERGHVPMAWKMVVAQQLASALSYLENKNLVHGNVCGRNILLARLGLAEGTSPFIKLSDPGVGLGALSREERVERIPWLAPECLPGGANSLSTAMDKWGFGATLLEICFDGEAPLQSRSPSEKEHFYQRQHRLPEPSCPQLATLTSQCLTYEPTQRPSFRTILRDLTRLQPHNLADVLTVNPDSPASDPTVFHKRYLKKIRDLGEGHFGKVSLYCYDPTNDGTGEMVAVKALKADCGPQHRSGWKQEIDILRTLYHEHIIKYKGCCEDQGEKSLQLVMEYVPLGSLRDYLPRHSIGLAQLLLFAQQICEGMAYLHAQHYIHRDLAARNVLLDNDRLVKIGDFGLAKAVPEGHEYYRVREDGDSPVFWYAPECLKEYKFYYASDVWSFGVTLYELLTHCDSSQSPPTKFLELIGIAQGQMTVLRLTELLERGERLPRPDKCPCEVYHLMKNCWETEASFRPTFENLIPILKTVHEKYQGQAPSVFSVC
T1 sequence (O60674 whole entry): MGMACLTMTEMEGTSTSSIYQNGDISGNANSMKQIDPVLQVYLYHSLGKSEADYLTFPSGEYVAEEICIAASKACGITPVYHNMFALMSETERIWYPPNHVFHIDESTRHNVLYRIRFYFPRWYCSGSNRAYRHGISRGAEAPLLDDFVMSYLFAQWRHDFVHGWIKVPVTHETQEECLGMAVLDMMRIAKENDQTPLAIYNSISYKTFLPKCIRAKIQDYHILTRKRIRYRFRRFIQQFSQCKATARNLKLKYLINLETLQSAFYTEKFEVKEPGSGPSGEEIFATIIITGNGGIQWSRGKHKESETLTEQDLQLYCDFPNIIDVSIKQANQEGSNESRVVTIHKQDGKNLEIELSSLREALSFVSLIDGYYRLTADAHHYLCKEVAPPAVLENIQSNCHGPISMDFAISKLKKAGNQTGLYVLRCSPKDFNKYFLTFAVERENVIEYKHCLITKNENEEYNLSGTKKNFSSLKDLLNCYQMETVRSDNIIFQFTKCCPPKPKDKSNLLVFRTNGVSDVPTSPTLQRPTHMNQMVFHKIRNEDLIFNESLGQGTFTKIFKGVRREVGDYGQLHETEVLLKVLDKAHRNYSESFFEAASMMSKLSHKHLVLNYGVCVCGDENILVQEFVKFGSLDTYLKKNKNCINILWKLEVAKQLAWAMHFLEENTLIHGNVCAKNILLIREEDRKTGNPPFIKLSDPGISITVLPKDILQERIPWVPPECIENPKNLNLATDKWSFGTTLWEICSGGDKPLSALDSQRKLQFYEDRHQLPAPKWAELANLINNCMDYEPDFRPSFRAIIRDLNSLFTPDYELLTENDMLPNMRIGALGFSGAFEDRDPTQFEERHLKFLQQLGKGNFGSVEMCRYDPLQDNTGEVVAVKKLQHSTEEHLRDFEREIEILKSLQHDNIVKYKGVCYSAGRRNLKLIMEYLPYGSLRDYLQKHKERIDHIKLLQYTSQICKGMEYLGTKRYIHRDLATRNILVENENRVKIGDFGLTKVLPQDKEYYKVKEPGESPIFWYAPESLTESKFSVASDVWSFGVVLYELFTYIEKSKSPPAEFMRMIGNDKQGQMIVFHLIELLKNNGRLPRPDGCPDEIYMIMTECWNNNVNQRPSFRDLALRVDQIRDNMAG

SMILES | microsomal CLint at 1 μM [1] [µL/min/mg] | half-life at 1 μM [1] [h] | GI50 [2] [nM] | IC50 [3] [nM] | GI50 [4] [nM] | IC50 [5] [nM] | IC50 [6] [nM] | F ([7]; Rat po @2 mpk, 0.2 mg/mL in 5% DMSO + 15% Solutol HS 15 + 80% Saline) [%] | AUC [7, 8] [ng·h/mL] | Vd [7, 8] [L/kg] | clearance [7, 8] [mL/min/kg] | half-life [7, 8] [h] | AUC [7, 9] [ng·h/mL] | Cmax [7, 9] [ng/mL] | half-life [7, 9] [h] | Pharmacokinetic profile in rats ([7]; conclusion in words)
O=C(NC12CC(n3cnc4cnc5[nH]ccc5c43)(C1)C2)C1CC(F)(F)C1 [Example 17, 3,3-Difluoro-N-(3-(imidazo[4,5-d]pyrrolo[2,3-b]pyridin-1(6H)-yl)bicyclo[1.1.1]pentan-1-yl)cyclobutanecarboxamide] | 1.04 | 22.3 | 86.7 | 89.5 | 48.2 | 8.4 |  |  |  |  |  |  |  |  |  | 
O=S(=O)(CCC(F)(F)F)NC12CC(n3cnc4cnc5[nH]ccc5c43)(C1)C2 [Example 32, 3,3,3-Trifluoro-N-(3-(imidazo[4,5-d]pyrrolo[2,3-b]pyridin-1(6H)-yl)bicyclo[1.1.1]pentan-1-yl)propane-1-sulfonamide] | 2.72 | 8.5 | 122 | 155 | 33.6 | 6.7 | 151 |  |  |  |  |  |  |  |  | 
O=C(CC1CC1)NC12CC(n3cnc4cnc5[nH]ccc5c43)(C1)C2 [Example 13, 2-Cyclopropyl-N-(3-(imidazo[4,5-d]pyrrolo[2,3-b]pyridin-1(6H)-yl)bicyclo[1.1.1]pentan-1-yl)acetamide] | 1.01 | 23 | 108 | 122 | 50.1 | 14.8 | 400 |  |  |  |  |  |  |  |  | 
CCCS(=O)(=O)NC12CC(n3cnc4cnc5[nH]ccc5c43)(C1)C2 [Example 1, N-(3-(Imidazo[4,5-d]pyrrolo[2,3-b]pyridin-1(6H)-yl)bicyclo[1.1.1]pentan-1-yl)propane-1-sulfonamide] | 4.1 | 5.69 | 354 | 141 | 19.6 | 5.95 | 119 | 21.90 | 458 | 1.42 | 36.2 | 0.46 | 190 | 92.8 | 2.06 | good Pharmacokinetic profile
O=S(=O)(NC12CC(n3cnc4cnc5[nH]ccc5c43)(C1)C2)N1CC(F)C1 [Example 22, 3-Fluoro-N-(3-(imidazo[4,5-d]pyrrolo[2,3-b]pyridin-1(6H)-yl)bicyclo[1.1.1]pentan-1-yl)azetidine-1-sulfonamide] | 1.24 | 18.6 | 163 | 45.5 | 54 | 6.1 | 28.4 |  |  |  |  |  |  |  |  | 
